Test [1] has as its target Endoplasmic reticulum aminopeptidase 1 (Homo sapiens, UniProt Q9NZ08). Description: Inhibition of human ERAP1 preincubated for 30 to 60 mins followed by addition of Leu-AMC as substrate measured for 15 mins by spectrofluorimetric method.
The target in test [2] is Endoplasmic reticulum aminopeptidase 2 (Homo sapiens, UniProt Q6P179). As to the kind of experiment: Inhibition of human ERAP2 preincubated for 30 to 60 mins followed by addition of Arg-AMC as substrate measured for 15 mins by spectrofluorimetric method.
A short description of test [3]: Inhibition of Plasmodium falciparum APN preincubated for 30 mins followed by addition of L-Arg-ACC as substrate measured for 15 to 30 mins by fluorescence analysis.

What is called Ki is a dissociation constant, usually derived from enzyme kinetics or from competition with a known ligand. The low end stands for higher affinity, the high end for lower affinity.

Sequence of Endoplasmic reticulum aminopeptidase 1 (Q9NZ08 whole entry): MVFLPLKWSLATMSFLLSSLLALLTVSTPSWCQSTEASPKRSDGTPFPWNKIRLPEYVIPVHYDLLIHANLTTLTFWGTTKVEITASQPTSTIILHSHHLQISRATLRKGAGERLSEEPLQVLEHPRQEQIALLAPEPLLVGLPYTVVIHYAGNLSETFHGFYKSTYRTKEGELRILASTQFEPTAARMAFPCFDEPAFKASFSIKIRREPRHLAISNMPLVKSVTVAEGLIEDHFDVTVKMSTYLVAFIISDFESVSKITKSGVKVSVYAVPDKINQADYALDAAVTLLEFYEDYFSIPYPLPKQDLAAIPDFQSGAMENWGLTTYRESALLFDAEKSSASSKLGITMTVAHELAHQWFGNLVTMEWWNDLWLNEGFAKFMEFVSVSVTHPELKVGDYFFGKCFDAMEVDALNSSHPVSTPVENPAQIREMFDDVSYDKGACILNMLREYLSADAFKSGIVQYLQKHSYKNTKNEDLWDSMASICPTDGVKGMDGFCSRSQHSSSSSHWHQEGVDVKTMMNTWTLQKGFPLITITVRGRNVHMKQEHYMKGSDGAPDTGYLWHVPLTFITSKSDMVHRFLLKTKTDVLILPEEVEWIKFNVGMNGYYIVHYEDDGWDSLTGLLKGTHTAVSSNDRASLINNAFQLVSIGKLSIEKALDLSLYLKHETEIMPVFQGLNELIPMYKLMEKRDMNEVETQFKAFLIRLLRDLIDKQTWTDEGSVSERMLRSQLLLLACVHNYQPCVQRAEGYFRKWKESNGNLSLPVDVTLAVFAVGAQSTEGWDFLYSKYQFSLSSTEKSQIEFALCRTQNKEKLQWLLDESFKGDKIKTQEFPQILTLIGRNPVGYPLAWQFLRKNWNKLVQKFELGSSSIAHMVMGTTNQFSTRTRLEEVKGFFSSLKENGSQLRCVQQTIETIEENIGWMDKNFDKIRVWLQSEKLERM
Sequence of Endoplasmic reticulum aminopeptidase 2 (Q6P179 whole entry): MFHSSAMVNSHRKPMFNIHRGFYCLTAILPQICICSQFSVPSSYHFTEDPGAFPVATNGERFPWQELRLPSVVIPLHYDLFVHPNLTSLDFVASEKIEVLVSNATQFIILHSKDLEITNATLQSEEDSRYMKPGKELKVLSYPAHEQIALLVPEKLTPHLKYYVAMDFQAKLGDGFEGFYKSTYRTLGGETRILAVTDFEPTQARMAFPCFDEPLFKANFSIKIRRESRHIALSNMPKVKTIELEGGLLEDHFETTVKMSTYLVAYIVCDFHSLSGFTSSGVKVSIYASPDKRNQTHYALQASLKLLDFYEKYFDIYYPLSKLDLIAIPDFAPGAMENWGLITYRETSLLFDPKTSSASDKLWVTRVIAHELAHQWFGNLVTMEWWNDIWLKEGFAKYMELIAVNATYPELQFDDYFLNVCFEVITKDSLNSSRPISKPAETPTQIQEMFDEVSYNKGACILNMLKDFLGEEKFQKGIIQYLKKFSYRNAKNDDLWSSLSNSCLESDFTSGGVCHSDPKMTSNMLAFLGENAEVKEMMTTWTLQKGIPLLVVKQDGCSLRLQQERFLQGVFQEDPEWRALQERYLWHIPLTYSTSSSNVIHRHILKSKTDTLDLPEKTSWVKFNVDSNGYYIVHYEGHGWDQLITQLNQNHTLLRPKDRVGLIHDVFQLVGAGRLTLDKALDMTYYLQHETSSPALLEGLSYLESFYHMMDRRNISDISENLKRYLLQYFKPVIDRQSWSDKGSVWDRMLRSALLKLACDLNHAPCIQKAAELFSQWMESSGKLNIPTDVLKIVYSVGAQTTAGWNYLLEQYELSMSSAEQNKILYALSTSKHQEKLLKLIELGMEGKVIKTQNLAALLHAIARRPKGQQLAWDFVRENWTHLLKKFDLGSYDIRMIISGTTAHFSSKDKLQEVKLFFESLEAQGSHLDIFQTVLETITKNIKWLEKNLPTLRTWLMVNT

With `CC(C)C[C@H](N)P(=O)(O)O` [LEUCINE PHOSPHONIC ACID], the Ki in test [1] is 5.08 µM; in test [2], more than 250 µM.

In the case of `NC(CNCC1CCCO1)P(=O)(O)O` (configuration not stated), the Ki in test [1] and in test [2] was more than 250 µM each time.

Turning to `CNCC(N)P(=O)(O)O` (configuration not stated), the Ki in test [1] and in test [2] was more than 250 µM throughout.

Take `CC(C)C[C@@H](N)P(=O)(O)O`: the Ki in test [1] is 249 µM; in test [2] it was more than 250 µM.

On to `NC(CNCCc1ccccc1)P(=O)(O)O` (configuration not stated), for which, in test [1], the Ki is more than 250 µM.

Turning to `CN(C)CCNCC(N)P(=O)(O)O` (configuration not stated), the Ki in test [1] and in test [2] was more than 250 µM in each case.

For `NCc1ccc(CC(CP(=O)(O)C(N)CCc2ccccc2)C(=O)O)cc1` (configuration not stated), the Ki in test [2] was more than 250 µM.

`CCCNCC(N)P(=O)(O)O` (configuration not stated): the Ki in test [1] and in test [2] was more than 250 µM in each case.

For the molecule `N[C@@H](CCc1ccccc1)P(=O)(O)C[C@@H](Cc1ccccc1)C(=O)O` (mixture of isomers), the values for the Ki in test [1] and in test [2] were 6.27 µM and 1.03 µM, respectively.

Turning to `NC(CCc1ccccc1)P(=O)(O)CC(Cc1ccc(O)cc1)C(=O)O` (configuration not stated), the results for the Ki in test [1] and in test [2] were 6.47 µM and 1.04 µM, respectively.

Consider `NC(CNC1CCCCCC1)P(=O)(O)O` (configuration not stated), for which the Ki in test [1] is more than 250 µM.

In test [1], `NCc1ccc(CNCC(N)P(=O)(O)O)cc1` (configuration not stated) displayed a Ki of more than 250 µM.

Take `NC(CNCC1CCNCC1)P(=O)(O)O` (configuration not stated): the Ki in test [1] is more than 250 µM.

As for `NC(CN1CCOCC1)P(=O)(O)O` (configuration not stated), the Ki in test [1] and in test [2] was more than 250 µM throughout.

Consider `NCCNCC(N)P(=O)(O)O` (configuration not stated), for which the Ki in test [1] and in test [2] was more than 250 µM in each case.

`NCc1cccc(CC(CP(=O)(O)C(N)CCc2cccnc2)C(=O)O)c1` (configuration not stated) yielded a Ki in test [2] of more than 250 µM.

On to `CC(NCC(N)P(=O)(O)O)c1ccccc1` (configuration not stated), for which the Ki in test [1] and in test [2] was more than 250 µM throughout.

In test [1], `COc1ccc(CCNCC(N)P(=O)(O)O)cc1` (configuration not stated) came in with a Ki of more than 250 µM.

As for `NC(CNCc1ccccc1)P(=O)(O)O` (configuration not stated), the Ki in test [1] was more than 250 µM; in test [2] it was 106 µM.

For `NC1CCCCC1NCC(N)P(=O)(O)O` (configuration not stated), the Ki in test [1] was more than 250 µM.

The molecule `CCCCCCNCC(N)P(=O)(O)O` (configuration not stated) came in with a Ki in test [1] of more than 250 µM.

`COc1ccc(CNCC(N)P(=O)(O)O)cc1` (configuration not stated): the Ki in test [1] was more than 250 µM.

As for `NC(CNC1CCCCC1)P(=O)(O)CC(Cc1ccccc1)C(=O)O` (configuration not stated), the Ki in test [1] is more than 250 µM.

In test [1], `CC(C)CNCC(N)P(=O)(O)CC(Cc1ccccc1)C(=O)O` (configuration not stated) returned a Ki of more than 250 µM.

As to `CC(C)(C)c1ccc(CNCC(N)P(=O)(O)O)cc1` (configuration not stated), the Ki in test [1] was more than 250 µM.

The molecule `NCC(N)P(=O)(O)O` (configuration not stated) came in with a Ki in test [1] of more than 250 µM.

The molecule `NC(CNC1CCCCC1)P(=O)(O)O` (configuration not stated) had a Ki in test [1] of more than 250 µM.

Regarding `NCc1cccc(CC(CP(=O)(O)C(N)CCc2ccccc2)C(=O)O)c1` (configuration not stated), the Ki in test [2] was more than 250 µM.

In the case of `CCCNCC(N)P(=O)(O)CC(Cc1ccccc1)C(=O)O` (configuration not stated), the Ki in test [1] was more than 250 µM.

On to `Cc1cc(C)cc(CC(CP(=O)(O)C(N)CCc2ccccc2)C(=O)O)c1` (configuration not stated), for which the inhibition constant Ki in test [1] and in test [2] was more than 250 µM each time.

In the case of `NC(CNC1CCCCCC1)P(=O)(O)CC(Cc1ccccc1)C(=O)O` (configuration not stated), in test [1], the Ki is more than 250 µM.

Molecule `NC(CN1CCCCC1)P(=O)(O)O` (configuration not stated) gave a Ki in test [1] of more than 250 µM.

In test [1], `NCC(N)P(=O)(O)CC(Cc1ccccc1)C(=O)O` (configuration not stated) registered a Ki of more than 250 µM.

On to `NC(CCc1ccccc1)P(=O)(O)CC(Cc1ccccc1)C(=O)O` (configuration not stated), for which the Ki in test [1] was determined as 19.1 µM; in test [3], 0.078 µM; in test [2] it was 0.35 µM.

Molecule `COc1ccc(CCNCC(N)P(=O)(O)CC(Cc2ccccc2)C(=O)O)cc1` (configuration not stated) displayed a Ki in test [1] of more than 250 µM.

In turn, `Nc1ccc(CNCC(N)P(=O)(O)O)cc1` (configuration not stated) gave a Ki in test [1] of more than 250 µM.

In turn, `NC(CNCCN1CCNCC1)P(=O)(O)O` (configuration not stated) registered a Ki in test [1] of more than 250 µM.

Values taken from ChEMBL document CHEMBL3826883, “Discovery of potent and selective inhibitors of human aminopeptidases ERAP1 and ERAP2 by screening libraries of phosphorus-containing amino acid and dipeptide analogues” (Bioorg Med Chem Lett, 2016).
